Consider two molecules from US5314891A, “Benzenesulphonamide derivatives” (Imperial Chemical Industries PLC, priority 1991, dated 1994).

The target of assay [1] is T1, 5-LO (Homo sapiens, UniProt P09917).
T1 construct: incubating a test compound with heparinised human blood, prior to challenge with the calcium ionphore A23187; endogenous in cells; host or cells: blood cells in heparinised human blood
T1 sequence (P09917 1-674): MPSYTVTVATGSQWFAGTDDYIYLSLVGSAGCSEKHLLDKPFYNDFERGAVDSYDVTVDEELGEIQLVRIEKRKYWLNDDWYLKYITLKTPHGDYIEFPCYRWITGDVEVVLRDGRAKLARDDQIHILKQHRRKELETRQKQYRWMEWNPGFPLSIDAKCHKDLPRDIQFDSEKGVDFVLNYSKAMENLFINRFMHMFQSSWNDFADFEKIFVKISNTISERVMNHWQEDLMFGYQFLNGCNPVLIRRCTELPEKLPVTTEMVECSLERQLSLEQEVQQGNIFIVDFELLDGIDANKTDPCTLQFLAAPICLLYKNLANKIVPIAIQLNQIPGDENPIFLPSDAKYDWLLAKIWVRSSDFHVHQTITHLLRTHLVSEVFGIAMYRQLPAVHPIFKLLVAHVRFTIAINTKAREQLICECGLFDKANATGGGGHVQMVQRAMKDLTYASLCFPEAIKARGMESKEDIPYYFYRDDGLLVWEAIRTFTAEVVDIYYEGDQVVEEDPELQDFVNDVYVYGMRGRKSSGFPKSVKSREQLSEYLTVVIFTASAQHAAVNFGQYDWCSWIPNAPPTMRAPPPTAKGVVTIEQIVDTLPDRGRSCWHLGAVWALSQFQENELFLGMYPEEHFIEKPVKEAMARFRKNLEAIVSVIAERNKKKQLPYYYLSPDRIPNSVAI
In words: Test a) in vitro human blood assay, A23187 challenge, LTB4 radioimmunoassay. Conditions: heparinised human blood. It counts as cell-based. As for the experimental part:
(§1) As stated previously, the novel compounds of the formula I are inhibitors of the enzyme 5-LO.
a) An in vitro assay system involving incubating a test compound with heparinised human blood, prior to challenge with the calcium ionphore A23187 and then indirectly measuring the inhibitory effects on 5-LO by assaying the amount of LTB4 using specific radioimmunoassays described by Carey and Forder (Prostaglandins, Leukotrienes Med., 1986, 22, 57; Prostaglandins, 1984, 28, 666; Brit. J. Pharmacol., 1985, 84, 34P) which involve the use of a protein-LTB4 conjugate produced using the procedure of Young et alia (Prostaglandins, 1983, 26(4), 605-613). The effects of a test compound on the enzyme cyclooxygenase (which is involved in the alternative metabolic pathway for arachidonic acid and gives rise to prostaglandins, thromboxanes and related metabolites) may be measured at the same time using the specific radioimmunoassay for thromboxane B2 (TxB2) described by Carey and Forder (see above). This test provides an indication of the effects of a test compound against 5-LO and also cyclooxygenase in the presence of blood cells and proteins. It permits the selectivity of the inhibitory effect on 5-LO or cyclooxygenase to be assessed.

In assay [2] the target is T2, 5-LO (Rattus norvegicus, UniProt P12527).
T2 construct: liberation of LTB4 induced by zymosan within an air pouch generated within the subcutaneous tissue of the back of male rats; from tissue
T2 sequence (P12527 1-673): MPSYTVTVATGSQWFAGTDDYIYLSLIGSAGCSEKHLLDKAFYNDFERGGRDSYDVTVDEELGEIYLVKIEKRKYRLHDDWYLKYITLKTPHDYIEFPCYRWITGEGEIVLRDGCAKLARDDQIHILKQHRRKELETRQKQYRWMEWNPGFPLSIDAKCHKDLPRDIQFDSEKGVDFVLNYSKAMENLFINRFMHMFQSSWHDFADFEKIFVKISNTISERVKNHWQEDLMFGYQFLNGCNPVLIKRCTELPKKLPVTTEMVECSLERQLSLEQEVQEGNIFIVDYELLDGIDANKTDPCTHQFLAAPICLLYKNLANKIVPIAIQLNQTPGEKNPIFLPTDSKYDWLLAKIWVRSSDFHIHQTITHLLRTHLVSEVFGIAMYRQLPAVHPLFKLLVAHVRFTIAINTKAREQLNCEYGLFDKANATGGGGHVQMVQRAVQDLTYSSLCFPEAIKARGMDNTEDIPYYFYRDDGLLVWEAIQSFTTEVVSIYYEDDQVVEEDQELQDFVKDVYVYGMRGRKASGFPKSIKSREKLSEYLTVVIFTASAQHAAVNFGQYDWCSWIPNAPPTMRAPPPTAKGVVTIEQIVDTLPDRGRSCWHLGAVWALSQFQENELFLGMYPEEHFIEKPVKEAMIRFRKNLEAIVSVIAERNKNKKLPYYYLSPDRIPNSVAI
Put plainly: Test c) in vivo zymosan-induced LTB4 liberation in rat air pouch. The conditions noted are these: male rats, oral. As for the experimental part: as §1
c) An in vivo system involving measuring the effects of a test compound administered orally against the liberation of LTB4 induced by zymosan within an air pouch generated within the subcutaneous tissue of the back of male rats. The rats are anaesthetised and air pouches are formed by the injection of sterile air (20 ml). A further injection of air (10 ml) is similarly given after 3 days. At 6 days after the initial air injection the test compound is administered (usually orally as the suspension produced when a solution of the test compound in dimethylsulphoxide is added to hydroxypropylmethylcellulose), followed by the intrapouch injection of zymosan (1 ml of a 1% suspension in physiological saline). After 3 hours the rats are killed, the air pouches are lavaged with physiological saline, and the specific radioimmunoassay described above is used to assay LTB4 in the washings. This test provides an indication of inhibitory effects against 5-LO in an inflammatory milieu.

For `COC1(c2cccc(Sc3ccc(S(=O)(=O)Nc4nccs4)cc3)c2)CCOCC1` [Example 6, 4-[3-(4-methoxytetrahydropyran-4-yl)phenylthio]-N-(2-thiazolyl)benzenesulphonamide], the midpoint of inhibition in assay [1], the IC50, lay at 1000 nM. Also, the ED50 in assay [2] turned out to be 1.5 mg/kg.

As for `COC1(c2cccc(Sc3ccc(S(=O)(=O)Nc4ccc(Cl)cn4)cc3)c2)CCOCC1` [Example 4, N-(5-chloropyrid-2-yl)-4[3-(4-methoxytetrahydropyran-4-yl)phenylthio]benzenesulphonamide], half-maximal inhibition in assay [1] (IC50) required 4200 nM. The ED50 in assay [2] is 1.5 mg/kg.
